Reference: patent US7863293B2, “CXCR4 chemokine receptor binding compounds” (Genzyme Corporation, priority 2003, dated 2011)
Like-named read-outs stand apart in the source and are kept apart here.

Columns and labels:
bone marrow stem cells = conditions: rats, coronary ligation; given within hours after cardiac ischemia, with or without rhG-CSF
Description: Adult rats are anesthetized and a thoracotomy is performed. The descending branch of the left coronary artery is ligated and not reperfused. […] Control rats are not treated with the reagents. The animals are monitored at one-week intervals by echocardiography and MRI. […] On the day of sacrifice, the hemodynamic functions are analyzed for left ventricle-end diastolic pressure, left ventricle-developed pressure and the rate of rise and fall of left ventricle pressure. The heart is then arrested in diastole and perfused via the abdominal aorta to flush residual blood from the vascular network of the myocardium. […] Several slices are made through the fixed heart and these are embedded in paraffin and sections. The sections are stained and analyzed by light microscopy to determine the size of the infarct in the treated and control animals. […] The immunohistochemical analysis involves the identification of transcription factors and surface markers expressed in early stages of myocyte development.

[1] = tested on: WBC and circulating CD34+ progenitor/stem cells; conditions: Phase 1 study, single dose of 80 μg/kg; cited from earlier work
WBC counts = conditions: HIV-infected patients; infusion 2.5 or 5.0 μg/kg/hr
white blood cells = conditions: human volunteers; 80 μg/kg s.c.
Description: (§1) Five healthy human volunteers having initial white blood cell counts of 4,500-7,500 cells/mm^3 were used in the study. […] Blood samples were obtained via catheter prior to the dose, and at various times up to 24 hours after dosing.
The blood samples were evaluated for total white blood cells, CD34 positive progenitor cells (via FACS analysis) as a percentage of total white blood cells, as well as the absolute numbers per mL and cycling status of granulocyte macrophage (CFU-GM), erythroid (BFU-E), and multipotential (CFU-GEMM) progenitor cells.

white blood cell count = conditions: all patients, i.v. 10-80 μg/kg; 5-10 hours after administration
Description: Eleven human patients having initial white blood cell counts of 4,000-6,500 cells/mm^3 were used in the study. […] Aliquots from this stock solution were added to 50-ml bags of 0.9% saline for intravenous injection in amounts to achieve the desired dosage levels (10 μg/kg-80 μg/kg).
The subjects described in this example already contained an indwelling peripheral intravenous catheter. […] Blood samples were obtained prior to the dose, and at various times up to 24 hours after dose administration.
Three patients were administered dosages of 10 μg/kg (open circles); 3 patients were administered dosages of 20 μg/kg (solid circles); 3 patients were administered 40 μg/kg (open triangles); and 2 patients were administered 80 μg/kg (closed triangles).

[2] = tested on: CFU-GM, BFU-E and CFU-GEMM progenitor cells; conditions: 80 μg/kg s.c.; for Fold change compared to T = 0, BFU-E, methylcellulose culture, MEAN / Fold change compared to T = 0, CFU-GEMM, methylcellulose culture, MEAN / Fold change compared to T = 0, CFU-GM, methylcellulose culture, MEAN: average of 5 donors
Description: as §1
(§2) All progenitor cell results are based on the scoring of 3 culture plates per assay per point.
(§3) For the progenitor cell numbers and cycling status, the numbers of CFU-GM, BFU-E and CFU-GEMM in methylcellulose cultures by stimulation of the cells with 1 Unit (U)/ml recombinant human (rhu) erythropoietin, 100 U/ml rhu granulocyte-macrophage colony stimulating factor (GM-CSF), 100 U/ml rhu interleukin-3 (IL-3) and 50 ng/ml rhu steel factor (SLF=stem cell factor (SCF)). The CFU-GM were also evaluated in agar cultures stimulated with 100 U/ml rhu GM-CSF and 50 ng/ml rhu SLF. For both types of assays, colonies were scored after 14 day incubation in a humidified atmosphere with 5% CO2 and lowered (5%) O2 tension. Cell cycling status of progenitors was measured using a high specific activity tritiated thymidine kill technique as previously described (Broxmeyer, H. E., et al., Exp. Hematol. (1989) 17:455-459).

CFU-GM progenitor cells = conditions: average of 5 donors, 80 μg/kg s.c.
Description: as §1, §2, §3

[3] = tested on: progenitor cells (CFU-GM, BFU-E, CFU-GEMM) per mL of blood; conditions: for Absolute Number Progenitors Per ML Blood, BFU-E / Absolute Number Progenitors Per ML Blood, CFU-GEMM / Absolute Number Progenitors Per ML Blood, CFU-GM: 1 hour post administration; for Absolute Progenitors Per ML Blood, BFU-E / Absolute Progenitors Per ML Blood, CFU-GEMM / Absolute Progenitors Per ML Blood, CFU-GM: 5 mg/Kg single s.c.; for Absolute Progenitors Per ML Blood, BFU-E / Absolute Progenitors Per ML Blood, CFU-GEMM / Absolute Progenitors Per ML Blood, CFU-GM / Fold Change Compared to Time 0, progenitors BFU-E / Fold Change Compared to Time 0, progenitors CFU-GEMM / Fold Change Compared to Time 0, progenitors GM: methylcellulose culture; for Fold Change Compared to Time 0, progenitors BFU-E / Fold Change Compared to Time 0, progenitors CFU-GEMM / Fold Change Compared to Time 0, progenitors GM: mice
Description: Progenitors were stimulated to form colonies in vitro with the combination of 1 U/ml rhu Epo, 50 ng/ml rhu SLF, 5% ^Vol/Vol pokeweed mitogen mouse spleen cell conditioned medium (PWMSCM), and 0.1 mM hemin. Plates were scored 7 days after incubation.

In the case of `c1cc(CN2CCCNCCNCCCNCC2)ccc1CN1CCCNCCNCCCNCC1` [AMD-3100], the “effect on cardiac remodeling, scar formation and myocardium” value (bone marrow stem cells) is given as “block to cardiac remodeling and scar formation”, the WBC count [1] is given as 17,000 /μl and the “time after discontinuation of the infusion at which WBC counts returned to baseline” value (WBC counts) is given as 7 days.
With `c1cc(CN2CCCNCCNCCCNCC2)ccc1CN1CCCNCCNCCCNCC1` [AMD3100, 1,1′-[1,4-phenylene-bis(methylene)]-bis-1,4,8,11-tetraazacyclotetradecane] the “time post-administration at which elevation of white blood cell count maximized” value (white blood cells) was 6 h, the “change in white blood cell count” value (white blood cell count) was “marked increase in white blood cell count” and the “fold change from T=0, progenitors BFU-E, methylcellulose culture” value ([2]; P2, T = 1 hour) was 1.43 fold. The “Absolute # of Progenitors per ML, BFU-E” value ([2]; P4, T = 9 hours) was 1343 per ML, the “Fold change compared to T = 0, BFU-E, methylcellulose culture, MEAN” value (shortened to “Fold change compared to T = 0, BFU-E”) ([2]; T = 1 hour) was 1.99 fold and the “Fold change compared to T = 0, CFU-GEMM, methylcellulose culture, MEAN” value (“Fold change compared to T = 0, CFU-GEMM” below) ([2]; T = 1 hour) was 2.32 fold. For the same molecule, the “Fold change compared to T = 0, CFU-GM, methylcellulose culture, MEAN” value ([2]; T = 1 hour) was 4.77 fold, the “Fold change compared to T = 0, BFU-E” value ([2]; T = 3 hours) was 3.21 fold and the “Fold change compared to T = 0, CFU-GEMM” value ([2]; T = 3 hours) was 4.33 fold. The “Fold change compared to T = 0, CFU-GM, methylcellulose culture, MEAN” value ([2]; T = 3 hours) was 13.66 fold, the “Fold change compared to T = 0, BFU-E” value ([2]; T = 6 hours) was 6.01 fold and the “Fold change compared to T = 0, CFU-GEMM” value ([2]; T = 6 hours) was 10.07 fold. For the same molecule, the “Fold change compared to T = 0, CFU-GM, methylcellulose culture, MEAN” value ([2]; T = 6 hours) was 21.71 fold, the “Fold change compared to T = 0, BFU-E” value ([2]; T = 9 hours) was 4.34 fold and the “Fold change compared to T = 0, CFU-GEMM” value ([2]; T = 9 hours) was 5.25 fold. The “Fold change compared to T = 0, CFU-GM, methylcellulose culture, MEAN” value ([2]; T = 9 hours) was 10.47 fold, the “Fold change compared to T = 0, BFU-E” value ([2]; T = 24 hours) was 1.26 fold and the “Fold change compared to T = 0, CFU-GEMM” value ([2]; T = 24 hours) was 1.53 fold. The “Fold change compared to T = 0, CFU-GM, methylcellulose culture, MEAN” value ([2]; T = 24 hours) was 1.56 fold, the “Fold change compared to T = 0, CFU-GM, agar culture, MEAN” value (“Fold change … agar culture, MEAN” for short) (CFU-GM progenitor cells; T = 1 hour) was 2.81 fold and the “Fold change … agar culture, MEAN” value (CFU-GM progenitor cells; T = 3 hours) was 8.54 fold. The “Fold change … agar culture, MEAN” value (CFU-GM progenitor cells; T = 6 hours) was 17.93 fold, the “Fold change … agar culture, MEAN” value (CFU-GM progenitor cells; T = 9 hours) was 10.25 fold and the “Fold change … agar culture, MEAN” value (CFU-GM progenitor cells; T = 24 hours) was 2.08 fold. The “Absolute Number Progenitors Per ML Blood, BFU-E” value ([3]; 1 mg/kg single s.c.) was 62 per ML blood, the “Absolute Number Progenitors Per ML Blood, CFU-GEMM” value ([3]; 1 mg/kg single s.c.) was 27.1 per ML blood and the “Absolute Number Progenitors Per ML Blood, CFU-GM” value ([3]; 1 mg/kg single s.c.) was 424 per ML blood. The “Absolute Number Progenitors Per ML Blood, BFU-E” value ([3]; 2.5 mg/kg single s.c.) was 98.9 per ML blood, the “Absolute Number Progenitors Per ML Blood, CFU-GEMM” value ([3]; 2.5 mg/kg single s.c.) was 70.6 per ML blood and the “Absolute Number Progenitors Per ML Blood, CFU-GM” value ([3]; 2.5 mg/kg single s.c.) was 687.6 per ML blood. For the same molecule, the “Absolute Progenitors Per ML Blood, BFU-E” value ([3]; 15″) was 134.5 per ML blood, the “Absolute Progenitors Per ML Blood, CFU-GEMM” value ([3]; 15″) was 90.4 per ML blood and the “Absolute Progenitors Per ML Blood, CFU-GM” value ([3]; 15″) was 791.6 per ML blood. For the same molecule, the “Absolute Progenitors Per ML Blood, BFU-E” value ([3]; 30″) was 209.3 per ML blood, the “Absolute Progenitors Per ML Blood, CFU-GEMM” value ([3]; 30″) was 113.5 per ML blood and the “Absolute Progenitors Per ML Blood, CFU-GM” value ([3]; 30″) was 1805.5 per ML blood. The “Absolute Progenitors Per ML Blood, BFU-E” value ([3]; 120″) was 102.3 per ML blood, the “Absolute Progenitors Per ML Blood, CFU-GEMM” value ([3]; 120″) was 47.6 per ML blood and the “Absolute Progenitors Per ML Blood, CFU-GM” value ([3]; 120″) was 828.7 per ML blood. The “Absolute Number Progenitors Per ML Blood, BFU-E” value ([3]; 5 mg/kg single s.c.) was 92.8 per ML blood, the “Absolute Number Progenitors Per ML Blood, CFU-GEMM” value ([3]; 5 mg/kg single s.c.) was 69.5 per ML blood and the “Absolute Number Progenitors Per ML Blood, CFU-GM” value ([3]; 5 mg/kg single s.c.) was 608.4 per ML blood. The “Absolute Number Progenitors Per ML Blood, BFU-E” value ([3]; 10 mg/kg single s.c.) was 120.5 per ML blood, the “Absolute Number Progenitors Per ML Blood, CFU-GEMM” value ([3]; 10 mg/kg single s.c.) was 79.8 per ML blood and the “Absolute Number Progenitors Per ML Blood, CFU-GM” value ([3]; 10 mg/kg single s.c.) was 825.6 per ML blood. For the same molecule, the “Fold Change Compared to Time 0, progenitors BFU-E” value ([3]; time 2′) was 2.07 fold, the “Fold Change Compared to Time 0, progenitors CFU-GEMM” value ([3]; time 2′) was 1.85 fold and the “Fold Change Compared to Time 0, progenitors GM” value ([3]; time 2′) was 2.86 fold. The “Fold Change Compared to Time 0, progenitors BFU-E” value ([3]; time 15″) was 2.72 fold, the “Fold Change Compared to Time 0, progenitors CFU-GEMM” value ([3]; time 15″) was 3.51 fold and the “Fold Change Compared to Time 0, progenitors GM” value ([3]; time 15″) was 2.73 fold. For the same molecule, the “Fold Change Compared to Time 0, progenitors BFU-E” value ([3]; time 30″) was 4.24 fold, the “Fold Change Compared to Time 0, progenitors CFU-GEMM” value ([3]; time 30″) was 4.41 fold and the “Fold Change Compared to Time 0, progenitors GM” value ([3]; time 30″) was 6.23 fold.
